The results in this text go back to US20260183274A1, “PDK1 REGULATORY COMPOUND AND COMPOSITION CONTAINING THE SAME” (PROVIBIO CO., LTD., priority 2024, published 2026).

The target of one series is T1, PDK1 (Homo sapiens, UniProt O15530).
T1 construct: purchased Promega V9681
T1 sequence (O15530 1-556): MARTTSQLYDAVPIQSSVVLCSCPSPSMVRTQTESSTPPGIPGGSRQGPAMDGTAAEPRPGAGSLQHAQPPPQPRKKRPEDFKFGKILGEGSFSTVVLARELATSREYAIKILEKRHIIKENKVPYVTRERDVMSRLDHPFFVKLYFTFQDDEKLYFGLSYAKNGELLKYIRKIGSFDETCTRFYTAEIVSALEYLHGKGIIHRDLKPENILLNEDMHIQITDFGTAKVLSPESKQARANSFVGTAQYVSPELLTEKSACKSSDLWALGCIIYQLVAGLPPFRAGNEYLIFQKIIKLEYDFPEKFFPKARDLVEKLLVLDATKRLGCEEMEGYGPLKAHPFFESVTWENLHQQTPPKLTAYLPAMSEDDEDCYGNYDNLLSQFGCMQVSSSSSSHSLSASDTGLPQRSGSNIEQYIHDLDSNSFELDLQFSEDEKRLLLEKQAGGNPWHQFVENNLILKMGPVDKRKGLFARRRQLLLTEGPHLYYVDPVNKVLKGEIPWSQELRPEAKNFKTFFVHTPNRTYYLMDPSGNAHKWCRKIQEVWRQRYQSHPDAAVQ
In words: PDK1 kinase activity inhibition, IC50 (in vitro kinase assay, luminescence). Format: biochemical. The note with it: FIG. 4; read-out: IC50 for inhibiting PDK1 kinase activity. The protocol:
As shown in the table below, this invention establishes an in vitro kinase assay system to quantitatively evaluate PDK1 kinase activity inhibition, and utilizes this system to compare and analyze the activity of new PDK1 inhibitor candidate compounds.
Specifically, after reacting ATP (100 μM), substrate (PDKtide, 0.5 μg/μL), and PDK1 enzyme (30 ng) at a specific concentration, the difference in ATP consumption between the group treated with each candidate compound and the DMSO control group was measured using luciferase-based luminescence signals (RLU).
Additionally, enzyme kinetics analysis was performed to quantitatively analyze the effect of the compounds of the present invention on the enzymatic activity of PDK1 (3-Phosphoinositide-dependent protein kinase-1) and to confirm the inhibition pattern.
Prior to the analysis, the half-maximal inhibitory concentration (IC50) values of the compounds GO15F, GO86, and GO88 of the present invention for inhibiting PDK1 kinase activity were determined, and the results are shown in FIG. 4.

Series [1] deals with T cells isolated from mouse spleens. Description: T cell proliferation inhibition (CFSE flow cytometry, anti-CD3/anti-CD28 stimulation). The format is cell-based. The conditions noted are these: mouse spleen T cells, 3 days; for inhibition at 30 µM / inhibition at 50 µM / inhibition at 0.1 µM / inhibition at 1 µM / inhibition at 10 µM / inhibition at 0.01 µM: Mus musculus, T-cell, 72 h, read-out: Proliferation inhibition rate (%). A digest of the protocol:
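Proliferation inhibition (%) came from flow cytometry of CFSE dilution after 3 days' culture at 37 °C with compound (10 nM, 100 nM, 1, 10, 30, 50 μM; triplicate wells). Cells were magnetically purified T cells from C57BL/6 mouse spleens, 2×10^5 per well, stimulated with 0.5 μg/mL each anti-CD3 and anti-CD28.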

Series [2] has as its system Human B Lymphocyte cell line, SU-DHL-8. Description: Relative cell viability CCK-8, SU-DHL-8. Format: cell-based. Put shortly:
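Cells grown in RPMI-1640 with 10% FBS, treated with compound at several concentrations, then given CCK-8 for 4 h at 37° C. Viability expressed as percent of DMSO-treated cells.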

Series [3] has as its system Human Osteosarcoma, Saos-2. In words: Relative cell viability CCK-8, Saos-2. The format is cell-based. The note with it: 48 hours. The protocol: Human-derived head and neck cancer cell line Fadu and osteosarcoma cell line Saos-2 were cultured in MEM medium containing 10% FBS, 100 U/mL penicillin, and 100 μg/mL streptomycin.
(§1) Following stabilization, the cells were harvested using Trypsin-EDTA treatment, centrifuged at 1,200 rpm for 3 minutes, the supernatant was removed, and the cells were resuspended in the same medium. They were then seeded into a 96-well plate (Costar 96-well cell culture plate, Corning) at 100 μL per well, and the conditions were adjusted as indicated in Table 5.
(§2) The cells were cultured in a 5% CO2 incubator at 37° C. for 24 hours, and after stabilization of the cells, each plate was washed with 200 μL of PBS per well and treated with 50 μL of culture medium per well.
(§3) After that, 10 μL of CCK-8 was added to each well, and the plate was incubated again at 37° C. in a 5% CO2 incubator for 2 hours.
(§4) In other words, when the survival rate of untreated cells (DMSO) is set at 100%, the relative cell survival rate in each group treated with the drug at different concentrations is indicated.

The subject of series [4] is Human Bladder cancer cell, T24. Description: Relative cell viability CCK-8, T24. The format is cell-based. The conditions noted are these: for Relative cell viability (%), T24: 48 hours. The protocol:
Human-derived breast cancer cell line MCF-7, human-derived lung cancer cell line A549, human-derived colorectal cancer cell line HCT-116, human pancreatic cancer cell line AsPC-1, glioblastoma cell line A172, and melanoma cell line Malme-3M were obtained from the Korean Cell Bank. gastric cancer cell line SNU-719, and bladder cancer cell line T24 were cultured in RPMI-1640 medium containing 10% FBS.
as §1, §2, §3, §4

Where [5] appears, read: 30 μM, 48 hours, untreated (DMSO) = 100%.
The mark [6] stands for this setting: 50 μM, 48 hours, untreated (DMSO) = 100%.
[7] abbreviates: Homo sapiens, SU-DHL-8, 48 h, read-out: Relative cell viability (%), SU-DHL-8, 1 μM, 48 hours, untreated (DMSO) = 100%.
Where [8] appears, read: Homo sapiens, SU-DHL-8, 48 h, read-out: Relative cell viability (%), SU-DHL-8, 10 μM, 48 hours, untreated (DMSO) = 100%.

The structures appear in SMILES notation. Read-outs that look alike come from different tables or passages of the source.

In the case of `Nc1ncccc1C(=O)NCCCCCCCCCCCCF` [Compound 57, 2-Amino-N-(12-fluoro-dodecyl)-nicotinamide], the IC50 at PDK1 turned out to be 380 nM. The inhibition at 30 µM in series [1] (compound 30 μM) was found to be 100%. For the same compound, in series [1] (compound 50 μM), the inhibition at 50 µM stood at 100%. Moreover, the “Proliferation inhibition rate (%)” value in series [1] (compound 10 nM) was −9.32%; in series [1] (compound 100 nM) it was −5.28%; in series [1] (compound 1 μM) it was 16.20%. The results for the “Relative cell viability (%), SU-DHL-8” value in series [2] (setting [5]) and in series [2] (setting [6]) were 15.63% and 11.94%, respectively. Further, the viability at 1 µM in series [2] (Homo sapiens, SU-DHL-8, 48 h, 1 μM, 48 hours, untreated (DMSO) = 100%, read-out: Relative cell viability (%), SU-DHL-8) was 19%. In addition, the viability at 10 µM in series [2] (Homo sapiens, SU-DHL-8, 48 h, 10 μM, 48 hours, untreated (DMSO) = 100%, read-out: Relative cell viability (%), SU-DHL-8) was found to be 18.8%.
`CC1(C)CN(CCCCCCCCCCCCC(=O)Nc2nc(N)c3[nH]cnc3n2)CCO1` [Compound 11, 12-[4-(2,2-dimethylmorpholin-4-yl)]dodecyl-N-(6-aminopurine-2-yl) carboxamide]: the IC50 on PDK1 came to 11.3 nM. The “Relative cell viability (%), Saos-2” value in series [3] (1 μM) worked out at 36.73%; in series [3] (10 μM), 24.98%; in series [3] (30 μM) it was 16.00%; in series [3] (50 μM), 36.73%. Further, the “Proliferation inhibition rate (%)” value is on record as −25.47% in series [1] (compound 10 nM); 100.00% in series [1] (compound 100 nM); 100.00% in series [1] (compound 1 μM); 100.00% in series [1] (compound 10 μM); 100.00% in series [1] (compound 30 μM); 100.00% in series [1] (compound 50 μM). Besides, the “Relative cell viability (%), T24” value in series [4] (1 μM) was 28.15%; in series [4] (10 μM), 31.17%; in series [4] (30 μM), 30.42%; in series [4] (50 μM) it was 29.34%. Further, the “Relative cell viability (%), SU-DHL-8” value came out at 7.63% in series [2] (1 μM, 48 hours, untreated (DMSO) = 100%); 6.09% in series [2] (10 μM, 48 hours, untreated (DMSO) = 100%); 4.82% in series [2] (setting [5]); 3.29% in series [2] (setting [6]).
For the compound `Nc1ncccc1C(=O)NCCCCCCCCCCCCN1CCNCC1` [Compound 5, 2-Amino-N-(12-(piperazin-1-yl)dodecyl)-nicotinamide], the “Relative cell viability (%), Saos-2” value in series [3] (1 μM, listed as GO78, 1 µM) is reported as 28.36%; in series [3] (10 μM, listed as GO78, 10 µM), 33.69%; in series [3] (30 μM, listed as GO78, 30 µM), 19.77%; in series [3] (50 μM, listed as GO78, 50 µM), 2.60%. The inhibition at 0.1 µM in series [1] (compound 100 nM) was 100%. Besides, the inhibition at 1 µM in series [1] (compound 1 μM) was found to be 100%. In series [1] (compound 10 μM), the inhibition at 10 µM was found to be 100%. Moreover, in series [1] (compound 30 μM), the inhibition at 30 µM amounted to 100%. In addition, the inhibition at 50 µM in series [1] (compound 50 μM) turned out to be 100%. The “Proliferation inhibition rate (%)” value in series [1] (compound 10 nM, listed as GO78, 0.01 µM) was −27.49%. For the same compound, the “Relative cell viability (%), T24” value in series [4] (1 μM, listed as GO78, 1 µM) is 28.34%; in series [4] (10 μM, listed as GO78, 10 µM), 30.42%; in series [4] (30 μM, listed as GO78, 30 µM), 29.73%; in series [4] (50 μM, listed as GO78, 50 µM), 29.32%. Further, in series [2] (setting [7]), the viability at 1 µM amounted to 8.8%. In series [2] (setting [8]), the viability at 10 µM came out at 5.87%. Besides, the “Relative cell viability (%), SU-DHL-8” value in series [2] (human, 48 h, 30 µM) turned out to be 4.63%; in series [2] (human, 48 h, 50 µM) it was 3.67%.
Regarding `Nc1nc(NC(=O)CCCCCCCCCCCCN2CCN(CCO)CC2)nc2nc[nH]c12` [Compound 15, 12-[4-(2-hydroxyethyl)piperazin-1-yl]dodecyl-N-(6-aminopurine-2-yl) carboxamide], the inhibition at 0.01 µM in series [1] (compound 10 nM) is -0.4%. In addition, the inhibition at 0.1 µM in series [1] (compound 100 nM) worked out at 100%. Moreover, the inhibition at 1 µM in series [1] (compound 1 μM) was determined as 100%. In series [1] (compound 10 μM), the inhibition at 10 µM was 100%. For the same compound, the inhibition at 30 µM in series [1] (compound 30 μM) is 100%. The inhibition at 50 µM in series [1] (compound 50 μM) is 100%. Moreover, the viability at 1 µM in series [4] (Homo sapiens, 48 h, 1 μM) came out at 7.92%. The compound also yielded a viability at 10 µM in series [4] (Homo sapiens, 48 h, 10 μM) of 9.29%. The compound further came in with a viability at 30 µM in series [4] (Homo sapiens, 48 h, 30 μM) of 9.57%. The compound further registered a viability at 50 µM in series [4] (Homo sapiens, 48 h, 50 μM) of 8.75%.
In the case of `Nc1ncccc1C(=O)NCCCCCCCCCCCCN1CCOCC1` [Compound 2, 2-Amino-N-(12-morpholin-4-yl-dodecyl)-nicotinamide], the inhibition at 0.01 µM in series [1] (compound 10 nM) is -1.47%. In addition, the inhibition at 0.1 µM in series [1] (compound 100 nM) was 0%. Further, the inhibition at 1 µM in series [1] (compound 1 μM) is 0%. Besides, in series [1] (compound 10 μM), the inhibition at 10 µM stood at 100%. Besides, the inhibition at 30 µM in series [1] (compound 30 μM) stood at 100%. Also, in series [1] (compound 50 μM), the inhibition at 50 µM turned out to be 100%. Besides, in series [2] (setting [7]), the viability at 1 µM turned out to be 31%. In series [2] (setting [8]), the viability at 10 µM is 26%. In addition, the viability at 30 µM in series [2] (Homo sapiens, SU-DHL-8, 48 h, read-out: Relative cell viability (%), SU-DHL-8, 30 μM, 48 hours, untreated (DMSO) = 100%) worked out at 25.3%. Besides, the viability at 50 µM in series [2] (Homo sapiens, SU-DHL-8, 48 h, read-out: Relative cell viability (%), SU-DHL-8, 50 μM, 48 hours, untreated (DMSO) = 100%) was 24.7%.
